In US20230124095A1 (AMORPHICAL LTD., priority 2020, published 2023):

Test system: Cathepsin B
Assay: Cathepsin B activity in lysate of LNCaP clone FGC cells
Format: cell-based, human
Conditions: 4 passages in supplemented medium

## [Ca+2].[Cl-].[Cl-] [CaCl2, calcium chloride]
  reduction of Cathepsin B activity compared to untreated control: 16%
